Where two headings read alike, the source gives them in different places.
Tests used:
[1] = system: Six human cancer cell lines (Hs683, U-373MG, HCT-15, LoVo, A549, MCF-7); experiment: MTT test of overall cell growth; assay type: cell-based; conditions: range of molar concentrations giving 50% inhibition of overall tumor cells growth, MTT, 72 hours incubation, six human cancer cell lines, read-out: IC50
Procedure: In order to characterize the in vitro activity of the compounds of the invention, MTT tests were performed to indirectly and rapidly measure, i.e. within 5 days, the effect of such a compound on the overall cell growth. The test measures the number of metabolically active living cells that are able to transform the yellow product 3-(4,5-dimethylthiazol-2-yl)-2,5-diphenyl tetrazolium bromide (herein referred as MTT) into the blue product formazan dye by mitochondrial reduction. The amount of formazan obtained at the end of the experiment was measured by means of a spectrophotometer and is directly proportional to the number of living cells. Determination of the optical density enables a quantitative measurement of the effect of the investigated compounds as compared to the control condition (untreated cells) and/or to other reference compounds (in casu mitonafide and amonafide).
Six human cancer cell lines described in table 1 were used in the MTT tests. These cell lines cover four histological cancer types, being glioma, colon, lung and breast cancers. Cells were allowed to grow in 96-well micro-wells with a flat bottom with an amount of 100 μl of cell suspension per well with 1,000 to 4,000 cells/well depending on the cell type used. Each cell line was seeded in an MEM 5% serum culture medium.
The detailed experimental procedure was as follows: after a 24-hour period of incubation at 37° C., the culture medium was replaced by 100 μl of fresh medium in which the compound to be tested was dissolved at the following molar concentrations: 10^−9 M, 5.10^−9 M, 10^−8 M, 5.10^−8 M, 10^−7 M, 5.10^−7 M, 10^−6 M, 5.10^−6 M and 10^−5 M. Each experiment was repeated 6 times.
After 72 hours of incubation at 37° C. with (experimental conditions) or without (control condition) the compound to be tested, the medium was replaced by 100 μl MTT dissolved in RPMI at a concentration of 1 mg/ml. The micro-wells were subsequently incubated during 3 hours at 37° C. and centrifuged at 400 g during 10 minutes. MTT was removed and formazan crystals formed were dissolved in 100 μl DMSO. The micro-wells were shaken for 5 minutes and read on a spectrophotometer at wavelengths of 570 nm (maximum formazan absorbance) and 630 nm (background noise).
For each experimental condition, the mean optical density was calculated, as well as the percentage of remaining living cells in comparison with the control.

L1210 (Mouse Leukemia) = experiment: L1210 mouse leukemia model, survival; assay type: in vivo, mice; conditions: median day of death treated/control; for response vs control in vivo at 10 mg/kg / response vs control in vivo at 20 mg/kg / response vs control in vivo at 40 mg/kg / response vs control in vivo at 80 mg/kg / response vs control in vivo at 2.5 mg/kg / response vs control in vivo at 5 mg/kg: Mus musculus, L1210, ip; for response vs control in vivo at 2.5 mg/kg: read-out: T/C (%), dose 2.5 mg/kg intraperitoneally at days 1, 2, 3, 4, 7, 8, 9 and 10; for response vs control in vivo at 5 mg/kg: read-out: T/C (%), dose 5 mg/kg intraperitoneally at days 1, 2, 3, 4, 7, 8, 9 and 10
Procedure: L1210 is a syngeneic model (Mouse Leukemia) which may be used to define an optimal treatment regimen (doses and schedule) for subsequent testing of drugs in more expensive and time-consuming orthotopic human xenograft models. The model was performed with 5 mice per group, said mice being grafted at day 0 and the tested compounds being injected intraperitoneally (at the dose indicated in table 4) at days 1, 2, 3, 4, 7, 8, 9 and 10 respectively. The data shown in table 4 are T/C values which were calculated by dividing the median day of death in a treated group T by the median day of death in the control group C. T/C values of 130% or more (i.e. a prolongation of mice survival of 30% or more) indicate a significant prolongation of survival.
The experimental procedure of example 25 was repeated with compounds of examples 17, 19, 33 and 35, and the data obtained from this experiment are reported in table 7.

in vivo = conditions: mouse
Procedure: (§1) The maximum tolerated dose (herein after MTD) is defined as the maximum amount of a given drug which can be administered acutely (i.e. in one intraperitoneal, intravenous, subcutaneous or oral single dose) to healthy animals, i.e. animals not grafted with tumors. The survival times and weights of the animals are recorded up to 14 days post injection. Five different doses of each drug are used for the determination of the MTD index. […] Each experimental group comprised 3 mice for the determination of the MTD index (expressed in mg/kg).

healthy animals = conditions: single dose to healthy mice, 3 mice per group, survival and weights recorded up to 14 days post injection
Procedure: as §1

leukemia models in mice = conditions: background statement; cited from earlier work
[2] = system: human tumour xenografts in mice with colon, lung and mammary cancers; conditions: background statement; cited from earlier work
[3] = system: primary human solid tumours; conditions: Ajani et al. Invest New Drugs (1988) 6:79-83; cited from earlier work
patients = patients receiving five daily doses; leading to some deaths; cited from earlier work
[4] = dose 10 mg/kg intraperitoneally at days 1, 2, 3, 4, 7, 8, 9 and 10, read-out: T/C (%)
[5] = dose 20 mg/kg intraperitoneally at days 1, 2, 3, 4, 7, 8, 9 and 10, read-out: T/C (%)
[6] = dose 40 mg/kg intraperitoneally at days 1, 2, 3, 4, 7, 8, 9 and 10, read-out: T/C (%)
[7] = dose 80 mg/kg intraperitoneally at days 1, 2, 3, 4, 7, 8, 9 and 10, read-out: T/C (%)
[8] = read-out: T/C (%), dose 10 mg/kg intraperitoneally at days 1, 2, 3, 4, 7, 8, 9 and 10
[9] = read-out: T/C (%), dose 20 mg/kg intraperitoneally at days 1, 2, 3, 4, 7, 8, 9 and 10
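Wherever MTD is given: highest single acute dose (intraperitoneal, intravenous, subcutaneous or oral) tolerated by tumor-free mice, assessed across five dose levels per drug.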

| SMILES | IC50 ([1]; Homo sapiens, 72 h) | response vs control in vivo at 10 mg/kg (L1210 (Mouse Leukemia); [4]) | response vs control in vivo at 20 mg/kg (L1210 (Mouse Leukemia); [5]) | response vs control in vivo at 40 mg/kg (L1210 (Mouse Leukemia); [6]) | response vs control in vivo at 80 mg/kg (L1210 (Mouse Leukemia); [7]) | MTD at 14 days (in vivo; intraperitoneal) | MTD at 14 days (in vivo) | further results |
| --- | --- | --- | --- | --- | --- | --- | --- | --- |
| CN(C)CCN1C(=O)c2cccc3cc(N=Cc4ccc5c(c4)OCO5)cc(c23)C1=O [Example 17, 5-{[(1Z)-1,3-benzodioxol-5-ylmethylene]amino}-N-{2-[2-(dimethylamino)ethyl]-1H-benzo[de]isoquinoline-1,3(2H)-dione] | > 10 µM | 120% | 233% | 207% | 280% | 80 mg/kg |  |  |
| CN(C)CCN1C(=O)c2cccc3cc(/N=C\c4cc(O)ccc4O)cc(c23)C1=O.Cl [Example 34] |  |  |  |  |  |  |  | MTD (healthy animals): 40 mg/kg |
| CN(C)CCN1C(=O)c2cccc3cc(N)cc(c23)C1=O [amonafide, N-(2-dimethylaminoethyl)-3-amino-1,8-naphthalimide, reference compound] | 1 to 5 µM |  |  |  |  |  | 40 mg/kg | response vs control in vivo at 2.5 mg/kg (L1210 (Mouse Leukemia)): 120%; response vs control in vivo at 5 mg/kg (L1210 (Mouse Leukemia)): 140%; response vs control in vivo at 10 mg/kg (L1210 (Mouse Leukemia); [8]): 120%; response vs control in vivo at 20 mg/kg (L1210 (Mouse Leukemia); [9]): 120%; activity in leukemia models in mice (leukemia models in mice): only moderate activity; activity in human tumour xenografts in mice [2]: no activity; activity in primary human solid tumours in vitro [3]: poor activity; myelotoxicity in patients (patients): substantial myelotoxicity |
| CN(C)CCN1C(=O)c2cccc3cc(NC(=O)Nc4ccc(OC(F)(F)F)cc4)cc(c23)C1=O [Example 10] | 1 to 5 µM | 117% | 156% | 139% | 194% | > 160 mg/kg |  |  |
| CN(C)CCN1C(=O)c2cccc3cc([N+](=O)[O-])cc(c23)C1=O [mitonafide, reference compound] | 1 to 5 µM |  |  |  |  |  | 40 mg/kg | response vs control in vivo at 2.5 mg/kg (L1210 (Mouse Leukemia)): 107%; response vs control in vivo at 5 mg/kg (L1210 (Mouse Leukemia)): 140%; response vs control in vivo at 10 mg/kg (L1210 (Mouse Leukemia); [8]): 120%; response vs control in vivo at 20 mg/kg (L1210 (Mouse Leukemia); [9]): 193% |
| CN(C)CCN1C(=O)c2cccc3cc(N=Cc4cc5c(cc4[N+](=O)[O-])OCO5)cc(c23)C1=O [Example 35, 5-{[(1Z)-benzo([1,3]dioxol-6-nitro)-5-yl-methylene]amino}-N-(2-[2-dimethylamino)ethyl]-1H-benzo[de]isoquinolin-1,3(2H)-dione] | > 10 µM | 213% | 193% | 280% | > 300% |  | 80 mg/kg |  |
| CN(C)CCN1C(=O)c2cccc3cc(NC(=O)Nc4ccc(C#N)cc4)cc(c23)C1=O [Example 7, N-[2-[2-(dimethylamino)ethyl]-1,3-dioxo-2,3-dihydro-1H-benzo[de]isoquinolin-5-yl]-N′-(4-cyanophenyl)urea] | 1 to 5 µM | 140% | 147% | 147% | 213% | > 160 mg/kg |  |  |
| CN(C)CCN1C(=O)c2cccc3cc(NC(=O)NC(=O)C(Cl)(Cl)Cl)cc(c23)C1=O.Cl [Example 33, 2,2,2-trichloro-N-[({2-[2-(dimethylamino)ethyl]-1,3-dioxo-2,3-dihydro-1H-benzo[de]isoquinolin-5-yl}amino)carbonyl]acetamide hydrochloride] |  |  |  |  |  |  | 120 mg/kg | IC50 ([1]; hydrochloride): 5 to 10 µM; T/C (%) (L1210 (Mouse Leukemia); dose 10 mg/kg intraperitoneally at days 1, 2, 3, 4, 7, 8, 9 and 10): 148%; T/C (%) (L1210 (Mouse Leukemia); dose 20 mg/kg intraperitoneally at days 1, 2, 3, 4, 7, 8, 9 and 10): 138%; T/C (%) (L1210 (Mouse Leukemia); dose 40 mg/kg intraperitoneally at days 1, 2, 3, 4, 7, 8, 9 and 10): 186%; T/C (%) (L1210 (Mouse Leukemia); dose 80 mg/kg intraperitoneally at days 1, 2, 3, 4, 7, 8, 9 and 10): 200% |
| CN(C)CCN1C(=O)c2cccc3cc(NC(=O)NC(=O)C(Cl)(Cl)Cl)cc(c23)C1=O [Example 2, 2,2,2-trichloro-N-[({2-[2-(dimethylamino)ethyl]-1,3-dioxo-2,3-dihydro-1H-benzo[de]isoquinolin-5-yl}amino)carbonyl]acetamide] |  |  |  |  |  |  | > 160 mg/kg | IC50 [1]: 0.5 to 1 µM; response vs control in vivo at 10 mg/kg (L1210 (Mouse Leukemia); [8]): 128%; response vs control in vivo at 20 mg/kg (L1210 (Mouse Leukemia); [9]): 156%; response vs control in vivo at 40 mg/kg (L1210 (Mouse Leukemia); read-out: T/C (%), dose 40 mg/kg intraperitoneally at days 1, 2, 3, 4, 7, 8, 9 and 10): 177%; response vs control in vivo at 80 mg/kg (L1210 (Mouse Leukemia); read-out: T/C (%), dose 80 mg/kg intraperitoneally at days 1, 2, 3, 4, 7, 8, 9 and 10): 194% |
| CN(C)CCN1C(=O)c2cccc3cc(NC(=O)Nc4ccc5c(c4)OCO5)cc(c23)C1=O [Example 9] | 5 to 10 µM | 113% | 140% | 160% | 187% | > 160 mg/kg |  |  |
| CN(C)CCN1C(=O)c2cccc3cc(/N=C\c4cc(O)ccc4O)cc(c23)C1=O [Example 19, 2-[2-(dimethylamino)ethyl]-5-{[(1Z)-(2,5-dihydroxyphenyl)methylene]amino}-1H-benzo[de]isoquinoline-1,3(2H)-dione] | 10 µM | 150% | 144% | 231% | 275% | 80 mg/kg |  |  |
| CN(C)CCN1C(=O)c2cccc3cc(NC(=S)Nc4ccc(Cl)cc4)cc(c23)C1=O [Example 26, N-[2-[2-(dimethylamino)ethyl]-1,3-dioxo-2,3-dihydro-1H-benzo[de]isoquinolin-5-yl]-N′-(4-chlorophenyl)thiourea] | > 10 µM |  |  |  |  |  | > 80 mg/kg |  |
